Peptide text beside a SMILES is read from it.
test system: Sheep red blood cells; assay: Hemolysis assay (HC50); format: cell-based; conditions: not given
Experimental: The hemolysis assay was conducted according to the procedure described previously. Sheep red blood cells (Defibrillated Sheep Blood, Graso, Poland) were used. […] Then the solution of RBCs was added to each well (100 μL with a 4% concentration of erythrocytes (v/v). The control wells for 0 and 100% hemolysis were also prepared: RBCs suspended in PBS and 1% of Triton-X 100, respectively. After that the plates were incubated for 60 min at 37 °C and then centrifuged at 800 × g for 10 min at 4 °C (Sorvall ST 16R Centrifuge, Thermo Scientific). The supernatant was carefully […] to new microtiter plates and the release of hemoglobin was measured at 590 nm (Multiskan™ GO Microplate Spectrophotometer, Thermo Scientific). Hemolysis for each concentration was calculated as the percentage of control with 100% hemolysis. All experiments were conducted in triplicate. The final values of HC50 were computed using ic50.tk tool.

| Compound | HC50 |
| --- | --- |
| CC[C@H](C)[C@H](NC(=O)[C@H](Cc1ccccc1)NC(=O)[C@H](CCCCN)NC(=O)[C@H](CC(N)=O)NC(=O)[C@H](CC(C)C)NC(=O)[C@H](CCC(N)=O)NC(=O)CN)C(=O)N[C@@H](CCCCN)C(=O)N[C@@H](CCCCN)C(=O)N[C@@H](C)C(=O)N[C@@H](CCC(N)=O)C(=O)N[C@@H](CCCNC(=N)N)C(=O)N[C@@H](CCCCN)C(=O)N[C@@H](Cc1ccccc1)C(=O)N[C@@H](Cc1c[nH]cn1)C(=O)N[C@@H](CCC(=O)O)C(=O)N[C@@H](CCCCN)C(=O)N[C@@H](Cc1ccccc1)C(=O)N[C@@H](C)C(=O)N[C@@H](CCCCN)C(N)=O [GQ20] (H-GQLNKFIKKAQRKFHEKFAK-NH2) | > 512 µg/mL |
| CC[C@H](C)[C@H](N)C(=O)NCC(=O)N[C@@H](CCCCN)C(=O)N[C@@H](CCC(=O)O)C(=O)N[C@@H](Cc1ccccc1)C(=O)N[C@@H](CCCCN)C(=O)N[C@@H](CCCNC(=N)N)C(=O)N[C@H](C(=O)N[C@H](C(=O)N[C@@H](CCC(=O)O)C(=O)N[C@@H](CCCNC(=N)N)C(=O)N[C@H](C(=O)N[C@@H](CCCCN)C(=O)N[C@@H](CCCNC(=N)N)C(=O)N[C@@H](Cc1ccccc1)C(=O)N[C@@H](CC(C)C)C(=O)N[C@@H](CCCNC(=N)N)C(=O)N[C@@H](CCC(=O)O)C(=O)N[C@@H](CC(C)C)C(=O)N[C@H](C(=O)N[C@@H](CCCNC(=N)N)C(=O)N1CCC[C@H]1C(=O)N[C@@H](CC(C)C)C(=O)N[C@@H](CCCNC(=N)N)C(N)=O)C(C)C)[C@@H](C)CC)C(C)C)[C@@H](C)CC [OP-145] (H-IGKEFKRIVERIKRFLRELVRPLR-NH2) | > 512 µg/mL |
| CC[C@H](C)[C@H](N)C(=O)N[C@@H](CC(C)C)C(=O)N[C@@H](CCCNC(=N)N)C(=O)N[C@@H](Cc1c[nH]c2ccccc12)C(=O)N1CCC[C@H]1C(=O)N[C@@H](Cc1c[nH]c2ccccc12)C(=O)N[C@@H](Cc1c[nH]c2ccccc12)C(=O)N1CCC[C@H]1C(=O)N[C@@H](Cc1c[nH]c2ccccc12)C(=O)N[C@@H](CCCNC(=N)N)C(=O)N[C@@H](CCCNC(=N)N)C(=O)N[C@@H](CCCCN)C(N)=O [Omiganan] (H-ILRWPWWPWRRK-NH2) | > 512 µg/mL |
| CC[C@H](C)[C@H](NC(=O)CN)C(=O)NCC(=O)N[C@@H](CCCCN)C(=O)N[C@@H](Cc1ccccc1)C(=O)N[C@@H](CC(C)C)C(=O)N[C@@H](CCCCN)C(=O)N[C@@H](CCCCN)C(=O)N[C@@H](C)C(=O)N[C@@H](CCCCN)C(=O)N[C@@H](CCCCN)C(=O)N[C@@H](Cc1ccccc1)C(=O)NCC(=O)N[C@@H](CCCCN)C(=O)N[C@@H](C)C(=O)N[C@@H](Cc1ccccc1)C(=O)N[C@H](C(=O)N[C@@H](CCCCN)C(=O)N[C@H](C(=O)N[C@@H](CC(C)C)C(=O)N[C@@H](CCCCN)C(=O)N[C@@H](CCCCN)C(N)=O)[C@@H](C)CC)C(C)C [Pexiganan] (H-GIGKFLKKAKKFGKAFVKILKK-NH2) | > 512 µg/mL |
| CC[C@H](C)[C@H](NC(=O)[C@H](CCCCN)NC(=O)[C@H](CC(N)=O)NC(=O)[C@@H](NC(=O)[C@@H](NC(=O)[C@H](CCCCN)NC(=O)[C@@H](NC(=O)[C@H](C)NC(=O)[C@@H](NC(=O)[C@H](Cc1c[nH]cn1)NC(=O)CNC(=O)[C@H](C)NC(=O)[C@H](CC(C)C)NC(=O)[C@H](CC(=O)O)NC(=O)[C@H](CCCCN)NC(=O)[C@H](C)NC(=O)[C@H](C)NC(=O)CNC(=O)[C@H](CCCCN)NC(=O)[C@H](CC(C)C)NC(=O)[C@@H](NC(=O)[C@H](CC(=O)O)NC(=O)[C@H](CC(C)C)NC(=O)[C@@H](NC(=O)CN)C(C)C)[C@@H](C)CC)C(C)C)[C@@H](C)O)C(C)C)[C@@H](C)CC)C(N)=O [Syphaxin] (H-GVLDILKGAAKDLAGHVATKVINKI-NH2) | > 512 µg/mL |

same assay, conditions: red cells of sheep

| Compound | HC50 |
| --- | --- |
| CC[C@H](C)[C@H](NC(=O)[C@H](Cc1ccccc1)NC(=O)[C@H](CCCCN)NC(=O)[C@H](CC(N)=O)NC(=O)[C@H](CC(C)C)NC(=O)[C@H](CCC(N)=O)NC(=O)CN)C(=O)N[C@@H](CCCCN)C(=O)N[C@@H](CCCCN)C(=O)N[C@@H](C)C(=O)N[C@@H](CCC(N)=O)C(=O)N[C@@H](CCCNC(=N)N)C(=O)N[C@@H](CCCCN)C(=O)N[C@@H](Cc1ccccc1)C(=O)N[C@@H](Cc1c[nH]cn1)C(=O)N[C@@H](CCC(=O)O)C(=O)N[C@@H](CCCCN)C(=O)N[C@@H](Cc1ccccc1)C(=O)N[C@@H](C)C(=O)N[C@@H](CCCCN)C(N)=O [GQ20] (H-GQLNKFIKKAQRKFHEKFAK-NH2) | >512 µg/mL |
| CC[C@H](C)[C@H](N)C(=O)NCC(=O)N[C@@H](CCCCN)C(=O)N[C@@H](CCC(=O)O)C(=O)N[C@@H](Cc1ccccc1)C(=O)N[C@@H](CCCCN)C(=O)N[C@@H](CCCNC(=N)N)C(=O)N[C@H](C(=O)N[C@H](C(=O)N[C@@H](CCC(=O)O)C(=O)N[C@@H](CCCNC(=N)N)C(=O)N[C@H](C(=O)N[C@@H](CCCCN)C(=O)N[C@@H](CCCNC(=N)N)C(=O)N[C@@H](Cc1ccccc1)C(=O)N[C@@H](CC(C)C)C(=O)N[C@@H](CCCNC(=N)N)C(=O)N[C@@H](CCC(=O)O)C(=O)N[C@@H](CC(C)C)C(=O)N[C@H](C(=O)N[C@@H](CCCNC(=N)N)C(=O)N1CCC[C@H]1C(=O)N[C@@H](CC(C)C)C(=O)N[C@@H](CCCNC(=N)N)C(N)=O)C(C)C)[C@@H](C)CC)C(C)C)[C@@H](C)CC [OP-145] (H-IGKEFKRIVERIKRFLRELVRPLR-NH2) | >512 µg/mL |
| CC[C@H](C)[C@H](N)C(=O)N[C@@H](CC(C)C)C(=O)N[C@@H](CCCNC(=N)N)C(=O)N[C@@H](Cc1c[nH]c2ccccc12)C(=O)N1CCC[C@H]1C(=O)N[C@@H](Cc1c[nH]c2ccccc12)C(=O)N[C@@H](Cc1c[nH]c2ccccc12)C(=O)N1CCC[C@H]1C(=O)N[C@@H](Cc1c[nH]c2ccccc12)C(=O)N[C@@H](CCCNC(=N)N)C(=O)N[C@@H](CCCNC(=N)N)C(=O)N[C@@H](CCCCN)C(N)=O [Omiganan] (H-ILRWPWWPWRRK-NH2) | >512 µg/mL |
| CC[C@H](C)[C@H](NC(=O)CN)C(=O)NCC(=O)N[C@@H](CCCCN)C(=O)N[C@@H](Cc1ccccc1)C(=O)N[C@@H](CC(C)C)C(=O)N[C@@H](CCCCN)C(=O)N[C@@H](CCCCN)C(=O)N[C@@H](C)C(=O)N[C@@H](CCCCN)C(=O)N[C@@H](CCCCN)C(=O)N[C@@H](Cc1ccccc1)C(=O)NCC(=O)N[C@@H](CCCCN)C(=O)N[C@@H](C)C(=O)N[C@@H](Cc1ccccc1)C(=O)N[C@H](C(=O)N[C@@H](CCCCN)C(=O)N[C@H](C(=O)N[C@@H](CC(C)C)C(=O)N[C@@H](CCCCN)C(=O)N[C@@H](CCCCN)C(N)=O)[C@@H](C)CC)C(C)C [Pexiganan] (H-GIGKFLKKAKKFGKAFVKILKK-NH2) | >512 µg/mL |
| CC[C@H](C)[C@H](NC(=O)[C@H](CCCCN)NC(=O)[C@H](CC(N)=O)NC(=O)[C@@H](NC(=O)[C@@H](NC(=O)[C@H](CCCCN)NC(=O)[C@@H](NC(=O)[C@H](C)NC(=O)[C@@H](NC(=O)[C@H](Cc1c[nH]cn1)NC(=O)CNC(=O)[C@H](C)NC(=O)[C@H](CC(C)C)NC(=O)[C@H](CC(=O)O)NC(=O)[C@H](CCCCN)NC(=O)[C@H](C)NC(=O)[C@H](C)NC(=O)CNC(=O)[C@H](CCCCN)NC(=O)[C@H](CC(C)C)NC(=O)[C@@H](NC(=O)[C@H](CC(=O)O)NC(=O)[C@H](CC(C)C)NC(=O)[C@@H](NC(=O)CN)C(C)C)[C@@H](C)CC)C(C)C)[C@@H](C)O)C(C)C)[C@@H](C)CC)C(N)=O [Syphaxin] (H-GVLDILKGAAKDLAGHVATKVINKI-NH2) | >512 µg/mL |

test system: human erythrocytes; assay: not given; design: method as in DBAASP; conditions: cited from earlier work

| Compound | Class (dedicated toxicity dataset used for toxicity classifier evaluation) |
| --- | --- |
| VKRWKKWRWKWKKWV [DBAASP_8775] | 0 |

same assay, conditions: toxicity class label 1 or 0, meaning of the labels not given; DBAASP HC50 data, human erythrocytes; ref DBAASP; cited from earlier work

| Compound | Class (dedicated toxicity dataset used for toxicity classifier evaluation) |
| --- | --- |
| VKRWKKWFRKWKKWV [DBAASP_16447] | 0 |
| VKRWKKWKRKWKKWV [DBAASP_16448] | 0 |
| VKRWKKWWRKLKKSV [DBAASP_8773] | 0 |
| VKWRWKKWRWKWKWKV [DBAASP_8776] | 0 |
| VKWRWKWKWRWKWKWKV [DBAASP_8777] | 0 |
| VQLRIRVAVIRA [DBAASP_7109] | 0 |
| VQWRIRVAVIRK [DBAASP_7680] | 0 |
| VRRFAWWWAFLRR [DBAASP_5137] | 0 |
| VRRFAWWWPFLRR [DBAASP_5142] | 0 |
| VRRFPAAAPFLRR [DBAASP_14271] | 0 |
| VRRFPWAWPFLRR [DBAASP_14266] | 0 |
| VRRFPWWAPFLRR [DBAASP_14267] | 0 |
| VRRFPWWYPFLRR [DBAASP_14261] | 0 |
| VRRFPWYWPFLRR [DBAASP_14260] | 0 |
| VRRFPWYYPFLRR [DBAASP_14263] | 0 |
| VRRFPYWWPFLRR [DBAASP_14259] | 0 |
| VRRFPYWYPFLRR [DBAASP_14264] | 0 |
| VRRFPYYWPFLRR [DBAASP_14262] | 0 |
| WCRRYRVLVRGVLVRYRRCW [DBAASP_13507] | 0 |

| Compound | Class (dedicated toxicity dataset used for toxicity classifier evaluation) |
| --- | --- |
| WIRRIKKWIRRVHK [DBAASP_10626] | 0 |
| WKIFKLKLRMLW [DBAASP_13717] | 1 |
| WKKIWSKIKKLLK [DBAASP_7155] | 0 |
| WKKWWKKWWKKW [DBAASP_10848] | 0 |
| WKRRIKIWKKIR [DBAASP_10625] | 0 |
| WLRRIGKGVKIIGGAALDHL [DBAASP_5344] | 0 |
| WLRRIKAWLRRIKA [DBAASP_7164] | 0 |
| WLRRIKAWLRRKRK [DBAASP_10627] | 0 |
| WRRRRRRRR [DBAASP_8812] | 0 |
| WRRRYRRWRRRRRWRRRPRR [DBAASP_10396] | 0 |
| WRWLRRIW [DBAASP_10631] | 0 |
| WWRLRRIW [DBAASP_10632] | 0 |
| WWWLKKIW [DBAASP_9820] | 0 |
| WWWLRRIR [DBAASP_10635] | 0 |
| WWWLRRIW [DBAASP_10629] | 0 |
| WWWLRRRW [DBAASP_10634] | 0 |
| WWWRRRIW [DBAASP_10633] | 0 |
| YLRLIRYMAKMI [DBAASP_17183] | 0 |

From publication PMC10017685 (Nature Communications, 2023)
